Measured values: publication PMC11396751, “Design, Synthesis, and Anticancer Activity of Novel Enmein-Type Diterpenoid Derivatives Targeting the PI3K/Akt/mTOR Signaling Pathway” (Molecules, 2024)

Key:
HeLa = system: HeLa; set-up: method as in PMID 20183309, PMID 26757019, doi:10.1016/j.tetlet.2007.10.133, PMID 19431012; settings: Figure 1; cited from earlier work
HL60 = system: HL60; set-up: method as in PMID 20183309, PMID 26757019, doi:10.1016/j.tetlet.2007.10.133, PMID 19431012; settings: Figure 1; cited from earlier work
MCF-7 = system: MCF-7; set-up: method as in PMID 20183309, PMID 26757019, doi:10.1016/j.tetlet.2007.10.133, PMID 19431012; settings: Figure 1; cited from earlier work
A549 = system: A549; set-up: method as in PMID 20183309, PMID 26757019, doi:10.1016/j.tetlet.2007.10.133, PMID 19431012; settings: Figure 1; cited from earlier work
L-02 cells = test: MTT anti-proliferative assay, normal L-02 cells; format: cell-based; settings: Homo sapiens, L02, 48 h, means ± SD of three experiments
Procedure: (§1) A series of novel enmein-type diterpenoid derivatives, 5a–m, were synthesized by introducing a side chain containing a carbamate moiety at the C-6 position of compound 4. The anticancer activities of 5a–m were tested against three human cancer cell lines and one human normal cell line by MTT assay.
(§2) Human non-small cell lung cancer cell lines (A549), human liver cancer cell lines (HepG2), human breast cancer cell lines (MCF-7), and human normal cell lines (L-02) were purchased from the cell bank of the Chinese Academy of Sciences. All cells were placed in RPMI-1640 medium (added 10% fetal bovine serum, […]) and cultured in an aseptic environment with 5% CO2 at 37 °C.
(§3) All derivatives were evaluated for their anti-proliferative activities against three cancer cell lines and one normal cell line by MTT assay. The cells in the logarithmic growth phase were inoculated into 96-well plates (3 × 10^3 cells/well) and incubated for 48 h in a sterile environment with 5% CO2 at 37 °C to make them attach via cell adhesion; then, the cells were co-incubated with target compounds for 48 h. After that, MTT solution (10 µL/well) was added to the cell culture medium to continue incubation for 4 h, following which the medium was replaced with DMSO (150 µL/well). The absorbance values at 490 nm were determined using an enzyme meter (Safire 2, Tecan, Männedorf, Switzerland) and further converted to half-inhibitory concentration values of these compounds.

HepG2 cells = test: MTT anti-proliferative assay, HepG2; format: cell-based, human; settings: Homo sapiens, HepG2; MTT, 48 h; means ± SD of three experiments
Procedure: as §1, §2, §3

MCF-7 cells = test: MTT anti-proliferative assay, MCF-7; format: cell-based; settings: Homo sapiens, MCF7, 48 h, means ± SD of three experiments
Procedure: as §1, §2, §3

A549 cells = test: MTT anti-proliferative assay, A549; format: cell-based, human; settings: Homo sapiens, A549; MTT, 48 h; means ± SD of three experiments
Procedure: as §1, §2, §3

Row | IC50 (HepG2 cells) [µM] | IC50 (MCF-7 cells) [µM] | IC50 (A549 cells) [µM] | Compound | IC50 (HeLa) [µM] | IC50 (HL60) [µM] | IC50 (MCF-7) [µM] | IC50 (A549) [µM] | IC50 (L-02 cells) [µM]
1 |  |  |  | C=C1C(=O)C23CC1CCC2C12COC(O)C1C(C)(C)CCC2OC3=O (centres unmarked) [Isodocarpin] | 4.01 | 0.57 |  |  | 
2 |  |  |  | C=C1C(=O)[C@]23C[C@H]1C[C@H](O)C2[C@@]12CO[C@@H](OC)C1C(C)(C)CC[C@@H]2OC3=O (some centres unmarked) [Rabdosin A] |  | 2.11 | 2.82 | 3.53 | 
3 | 25.7 ± 2.16 | 26.3 ± 2.3 | 17.2 ± 1.43 | C=C1C(=O)C23C(=O)OC45CCC(C)(C)C6C(OC(=O)N7c8ccccc8Sc8ccccc87)OCC64C2CCC1C3O5 (single isomer, unassigned; ent-6) [Compound 5k, ent-6β,14α-Dihydroxy-(1,7–1,14)-epoxy-7,15-dioxo-6,20-hemiketal-6,7-seco-16-kaurene-6β-yl 10H-phenothiazine-10-carboxylate] |  |  |  |  | > 50
4 | 15.2 ± 1.58 | 17.6 ± 2.4 | 15.8 ± 1.5 | C=C1C(=O)C23C(=O)OC45CCC(C)(C)C6C(OC(=O)N(CC)CC)OCC64C2CCC1C3O5 (single isomer, unassigned; ent-6) [Compound 5b, ent-6β,14α-Dihydroxy-(1,7–1,14)-epoxy-7,15-dioxo-6,20-hemiketal-6,7-seco-16-kaurene-6β-yl diethylcarbamate] |  |  |  |  | > 50
5 | 11.2 ± 1.82 | 15.9 ± 1.9 | 8.3 ± 2.55 | C=C1C(=O)C23C(=O)OC45CCC(C)(C)C6C(OC(=O)CCn7cccc7)OCC64C2CCC1C3O5 (single isomer, unassigned; ent-6) [Compound 5l, ent-6β,14α-Dihydroxy-(1,7–1,14)-epoxy-7,15-dioxo-6,20-hemiketal-6,7-seco-16-kaurene-6β-yl 3-(1H-pyrrol-1-yl) propanoate] |  |  |  |  | > 50
